A short description of data set [1]: Apparent solubility study in pH buffers (50 mM), 25° C., 24 hours, HPLC. The settings on record: for Solubility: 25° C., 24 hours; for Solubility / Final pH: listed as Example 15, sodium salt Form J of compound (I); for Final pH: after 24 hours. Format: physicochemical. As to the method: Apparent solubility was determined by suspending 5 mg of compound (I) in different bio-relevant media including pH buffers (50 mM). The suspensions were equilibrated at 25° C. for 24 hours. The suspensions were then filtered through a 0.22 μm PVDF filter into a 2-mL HPLC vial. The quantification of the filtrate was conducted by HPLC with reference to a standard solution.

The nature of data set [2]: Apparent solubility in FaSSIF over time. In kind it is physicochemical. The text has this:
(§1) Therefore, sodium salt Form J is suitable to be formulated as sustained-release oral formulation. […] Therefore, sodium salt Form J could be developed as enteric release formulations to avoid conversion in SGF and achieve higher solubility in intestinal environment for better absorption.

Data set [3] is described as follows: Physical stability of solid forms (general statements, accelerated and long term stability testing). Format: physicochemical. The settings on record: conditions not stated; listed as sodium salt Form J. From the text:
Developing novel forms of compound (I) with good processability or acceptable aqueous solubility is one of the objectives of current invention. Some novel solid forms enhance the developability of compound (I) fundamentally. The physical stability of drug substances is an integral part of the systematic approach to the stability evaluation of pharmaceuticals due to its potential impacts on drug chemical stability performance and safety. The greater the stability is, the longer the shelf life could be. Therefore, the accelerated and long term stability testing used in this invention could be used to predict shelf lives.

A further data set can be described thus: In vivo PK study.
Source text: as §1

Data set [4] is described as follows: Stability of solid forms, stability chamber 40° C. and 75%-RH, XRPD after 1 month. In kind it is physicochemical. To be noted: 40° C./75%-RH. As to the method:
40 mg of compound (I) in different solid forms were stored in a stability chamber with temperature and humidity controlled at 40° C. and 75%-RH, respectively. After 1 month, the samples were analyzed by XRPD to check their solid form and compared with their initial solid form.

Data set [5] in a line: Conversion of solid form in SGF. Format: physicochemical.
Source text: as §1

Regarding `CCOC(=O)C1=C(CN2CCN3C(=O)N(CC(C)(C)C(=O)O)C[C@@H]3C2)NC(c2nccs2)=N[C@H]1c1cccc(F)c1C` [Form J, 3-[(8aS)-7-[[(4S)-5-ethoxycarbonyl-4-(3-fluoro-2-methyl-phenyl)-2-thiazol-2-yl-1,4-dihydropyrimidin-6-yl]methyl]-3-oxo-5,6,8,8a-tetrahydro-1H-imidazo[1,5-a]pyrazin-2-yl]-2,2-dimethyl-propanoic acid], the “Solubility compared with other crystal forms of the parent compound (I)” value in data set [1] is listed as “improved solubility compared with some of other crystal forms”. In addition, the Solubility – broadly, how much of the substance goes into solution per volume – is 1510 µg/mL in data set [1] (pH 1 buffer); 16 µg/mL in data set [1] (pH 3 buffer); 2.8 µg/mL in data set [1] (pH 5 buffer); 690 µg/mL in data set [1] (pH 7 buffer); above 10000 µg/mL in data set [1] (pH 9 buffer). In addition, the “Final pH” value in data set [1] (pH 1 buffer) is reported as 1.12; in data set [1] (pH 3 buffer), 3.53; in data set [1] (pH 5 buffer) it was 5.22; in data set [1] (pH 7 buffer) it was 7.34; in data set [1] (pH 9 buffer), 8.80. Further, in data set [1] (pH7 and pH9), the “Solubility compared with Form A” value is “higher solubility than Form A at pH7 and pH9”. In addition, the “Apparent solubility in FaSSIF” value in data set [2] is given as “increased with time”. In addition, the “Physical / solid state stability” value in data set [3] is listed as “improved stability compared with Form D”. Besides, the “Absorption rate to reach Cmax” value in “In vivo PK study” is recorded as “much slower absorption rate to reach Cmax”. Further, the “Solid form stability compared with Form D” value in data set [4] is on record as “better solid form stability than the original Form D”. In data set [4] (listed as Example 15, sodium salt Form J of compound (I)), the “Physical stability (solid form by XRPD)” value is reported as “no solid form change”. Further, in data set [5], the “Solid form conversion” value was “converted to HCl salt immediately”.

These data come from patent US12655153B2, “Solid forms of a HBV core protein allosteric modifier” (Hoffmann-La Roche Inc., priority 2019, dated 2026).
